Consider 13 compounds from ChEMBL document CHEMBL1201862, “PubChem BioAssay data set” (2004).

Among the test systems are SK-OV-3; CCRF-CEM; SNB-19; TK-10; T47D; OVCAR-3; EKVX; PC-3; MOLT-4; RXF 393; MCF7; M14; DU-145; SN12C; HL-60; MDA-MB-435; A498; DMS-273; DMS-114; KM-20L2.
Common to all, as to experiment: inhibition of tumour cell growth, NCI panel, 48 h

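Interpolation was linear, between the two tested concentrations surrounding the appropriate level; five concentrations were tested over 48 hours in 96-well plates. GI50 is the concentration that inhibits growth by half.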 Active and inactive are the calls of the source. Rule as the data show it: active = GI50 up to about 1.1 µM and inactive = higher. Bounds are passed on as bounds.

`CCOC(=O)C(NC(=O)CC)(Nc1ccccc1OC)C(F)(F)F` (centres undefined): the GI50 in the assay with SK-OV-3, in the assay with CCRF-CEM, with SNB-19, in the assay with TK-10, in the assay on T47D and in the assay on OVCAR-3 was > 100 µM (inactive) in each case. Besides, the GI50 with EKVX, in the assay with PC-3, in the assay on MOLT-4, with RXF 393, in the assay on MCF7 and in the assay on M14 was > 100 µM (inactive) each time. Further, the GI50 in the assay with DU-145, in the assay with SN12C, in the assay with HL-60 and in the assay on MDA-MB-435 was > 100 µM (inactive) each time.
Turning to `COc1nc(Cl)c(Cl)c(Cl)n1.COc1nc(Cl)nc(Cl)c1Cl`, the GI50 in the assay with SK-OV-3 is 10.3 µM (inactive); in the assay on CCRF-CEM, 2.7 µM (inactive); in the assay on SNB-19, 4.97 µM (inactive); in the assay on TK-10, 8.73 µM (inactive); with T47D it was 2.29 µM (inactive); in the assay on OVCAR-3 it was 3.95 µM (inactive). The GI50 is 0.381 µM (active) with EKVX; 2.66 µM (inactive) in the assay on PC-3; 8.61 µM (inactive) in the assay with A498; 0.603 µM (active) in the assay on MOLT-4; 10.7 µM (inactive) in the assay with RXF 393; 2.62 µM (inactive) in the assay with MCF7. The GI50 in the assay with M14 is 8.36 µM (inactive); in the assay with DU-145 it was 2.35 µM (inactive); in the assay with SN12C, 23.3 µM (inactive); in the assay with HL-60, 5.47 µM (inactive); in the assay on MDA-MB-435 it was 2.97 µM (inactive).
For the compound `CCOC(=O)/C=C(\C)c1ccc(OC)cc1`, the GI50 with SNB-19 was > 100 µM (inactive); in the assay on TK-10, > 100 µM (inactive); in the assay on EKVX, > 100 µM (inactive); in the assay with DMS-273 it was > 100 µM (inactive); in the assay on A498, 89.3 µM (inactive); with RXF 393, > 100 µM (inactive). In addition, the GI50 with DMS-114, with M14, in the assay on KM-20L2, in the assay on SN12C and in the assay with HL-60 was > 100 µM (inactive) each time.
`OCCNCN(CNCCO)c1nc(N(CNCCO)CNCCO)nc(N(CNCCO)CNCCO)n1`: the GI50 is 0.0861 µM (active) with SK-OV-3; 0.04 µM (active) in the assay with CCRF-CEM; 0.0708 µM (active) in the assay with SNB-19; 0.133 µM (active) in the assay on TK-10; 0.0908 µM (active) with OVCAR-3; 0.0679 µM (active) in the assay with EKVX. Further, the GI50 with DMS-273 was > 0.4 µM (active); in the assay on A498 it was 0.0764 µM (active); with MOLT-4, 0.0873 µM (active); in the assay with RXF 393 it was 0.0676 µM (active); in the assay on M14, 0.0577 µM (active); with KM-20L2, 0.103 µM (active). Further, in the assay with SN12C, the GI50 was 0.131 µM (active).
Consider `CCOC(=O)c1csc(NC(=O)CCN(CC)CC)n1`, for which the GI50 with SK-OV-3 is > 100 µM (inactive); in the assay on CCRF-CEM, 27.5 µM (inactive); in the assay on SNB-19 it was > 100 µM (inactive); in the assay with TK-10, 23.8 µM (inactive); in the assay on T47D it was 54.7 µM (inactive); in the assay with OVCAR-3, 26.8 µM (inactive). The GI50 was 63.2 µM (inactive) with EKVX; 41 µM (inactive) with PC-3; 91.2 µM (inactive) with A498; 32.7 µM (inactive) in the assay on MOLT-4; 49.4 µM (inactive) in the assay with RXF 393; 26 µM (inactive) in the assay on MCF7. The GI50 in the assay on M14 was 25 µM (inactive); in the assay on DU-145 it was 40.2 µM (inactive); in the assay with HL-60, 39.1 µM (inactive); in the assay on MDA-MB-435, 38.3 µM (inactive).
As to `Oc1cc(CN2COc3ccccc32)c(O)cc1CNC1CCCCC1`, the GI50 in the assay with SK-OV-3 was 64.9 µM (inactive); in the assay on CCRF-CEM, 4.53 µM (inactive); in the assay with SNB-19, > 100 µM (inactive); with TK-10 it was 21.6 µM (inactive); with T47D it was 26.4 µM (inactive); with OVCAR-3 it was 26.2 µM (inactive). Also, the GI50 with EKVX is 17.3 µM (inactive); in the assay with PC-3, 19.3 µM (inactive); in the assay on A498 it was 22 µM (inactive); in the assay on MOLT-4, 8.79 µM (inactive); in the assay on RXF 393 it was 21.5 µM (inactive); in the assay on MCF7, 20.4 µM (inactive). The GI50 in the assay on M14 was 31.3 µM (inactive); with DU-145, 45.2 µM (inactive); in the assay with SN12C, 30.7 µM (inactive); in the assay on MDA-MB-435 it was 24.6 µM (inactive).
Consider `O=C(O[C@@H](/C=C/c1ccccc1)P1(=O)N(Cc2ccccc2)[C@H]2CCCC[C@@H]2N1Cc1ccccc1)c1ccccc1`, for which the GI50 was 4.54 µM (inactive) with SK-OV-3; 3.03 µM (inactive) in the assay on CCRF-CEM; 5.81 µM (inactive) in the assay with SNB-19; 3.52 µM (inactive) in the assay on TK-10; 2.44 µM (inactive) in the assay on T47D; 3.48 µM (inactive) with OVCAR-3. For the same compound, the GI50 is 4.12 µM (inactive) with EKVX; 2.43 µM (inactive) in the assay with PC-3; 2.12 µM (inactive) in the assay with A498; 2 µM (inactive) in the assay with RXF 393; 2.32 µM (inactive) in the assay on MCF7; 4.18 µM (inactive) in the assay with M14. Further, the GI50 with DU-145 was 6.21 µM (inactive); in the assay with SN12C, 2.53 µM (inactive); in the assay with HL-60, 2.39 µM (inactive); in the assay on MDA-MB-435 it was 3.21 µM (inactive).
Turning to `CCOC(=O)/C(C#N)=C1/SC(C(=O)N/N=C/c2ccc(OC)cc2)=C(N)N1c1ccccc1`, the GI50 is 32.4 µM (inactive) with SK-OV-3; > 100 µM (inactive) in the assay with CCRF-CEM; > 100 µM (inactive) in the assay with SNB-19; > 100 µM (inactive) in the assay on TK-10; > 100 µM (inactive) in the assay on OVCAR-3; > 100 µM (inactive) in the assay with MOLT-4. For the same compound, the GI50 with HL-60 was > 100 µM (inactive).
Turning to `CC(=O)OC1COC(Nn2c(=O)[nH]c3ccccc3c2=O)C(OC(C)=O)C1OC(C)=O` (centres undefined), the GI50 is > 100 µM (inactive) in the assay on SK-OV-3; > 100 µM (inactive) in the assay on CCRF-CEM; > 100 µM (inactive) in the assay with SNB-19; > 100 µM (inactive) in the assay with TK-10; 47.1 µM (inactive) in the assay on T47D; > 100 µM (inactive) in the assay on OVCAR-3. In addition, the GI50 with EKVX was 36.1 µM (inactive); in the assay on PC-3, > 100 µM (inactive); with A498 it was > 100 µM (inactive); in the assay with MOLT-4 it was > 100 µM (inactive); in the assay on MCF7, > 100 µM (inactive); with M14, > 100 µM (inactive). Further, the GI50 in the assay on DU-145, in the assay on SN12C, with HL-60 and in the assay on MDA-MB-435 was > 100 µM (inactive) in each case.
In the case of `COc1cc2c(cc1OC)C(C)N(C)c1c-2c(OC(C)=O)cc2cc(OC)c(OC)cc12` (centres undefined), the GI50 is 27.7 µM (inactive) in the assay on SK-OV-3; 31.6 µM (inactive) with CCRF-CEM; 27.5 µM (inactive) with SNB-19; 23.2 µM (inactive) in the assay with TK-10; 8.24 µM (inactive) with T47D; 4.29 µM (inactive) in the assay with OVCAR-3. For the same compound, the GI50 with EKVX was 13.2 µM (inactive); with PC-3, 14.7 µM (inactive); with A498, 10.7 µM (inactive); in the assay with MOLT-4, 5.69 µM (inactive); with RXF 393, 6.12 µM (inactive); in the assay on MCF7, 12.5 µM (inactive). Moreover, the GI50 with M14 was 11.7 µM (inactive); in the assay on DU-145, 16.9 µM (inactive); in the assay on SN12C it was 9.93 µM (inactive); in the assay on MDA-MB-435, 15.8 µM (inactive).
Regarding `C/N=c1/ssc(=S)n1C(C)C`, the GI50 in the assay with CCRF-CEM was 0.673 µM (active); in the assay on SNB-19 it was > 100 µM (inactive); in the assay with TK-10 it was 44.6 µM (inactive); with OVCAR-3 it was 12.4 µM (inactive); in the assay on EKVX, 57.8 µM (inactive); in the assay on MOLT-4, 10.8 µM (inactive). The GI50 in the assay on RXF 393 was 7.5 µM (inactive); with DMS-114, 3.13 µM (inactive); in the assay on M14, 12.8 µM (inactive); in the assay on KM-20L2 it was 16.7 µM (inactive); in the assay with HL-60 it was 2.3 µM (inactive).
As for `COc1c2c(cc3c1-c1c(cc4c(c1OC)OCO4)C1OC3C(C)C1C)OCO2.COc1cc2c(c(OC)c1OC)-c1c(cc3c(c1OC)OCO3)C1OC2C(C)C1C` (centres undefined), the GI50 with SK-OV-3 is > 100 µM (inactive); in the assay with CCRF-CEM, 40.4 µM (inactive); in the assay on SNB-19, > 100 µM (inactive); with TK-10, > 100 µM (inactive); with T47D it was 26.1 µM (inactive); with OVCAR-3 it was 84.5 µM (inactive). Besides, the GI50 in the assay on EKVX was 87.3 µM (inactive); with PC-3, 37.8 µM (inactive); with A498 it was > 100 µM (inactive); in the assay on MOLT-4, 22.3 µM (inactive); in the assay on RXF 393, > 100 µM (inactive); in the assay on MCF7, > 100 µM (inactive). Also, the GI50 in the assay on M14 was > 100 µM (inactive); in the assay on DU-145, 91.8 µM (inactive); with SN12C it was > 100 µM (inactive); in the assay with HL-60, 28.9 µM (inactive); in the assay on MDA-MB-435 it was > 100 µM (inactive).
Regarding `O=c1c(Cc2c(O)oc3cc(O)ccc3c2=O)c(O)oc2cc(O)ccc12`, the GI50 is > 100 µM (inactive) with SK-OV-3; 56 µM (inactive) in the assay on CCRF-CEM; > 100 µM (inactive) with SNB-19; > 100 µM (inactive) in the assay with TK-10; > 100 µM (inactive) with T47D; > 100 µM (inactive) with OVCAR-3. Further, the GI50 with EKVX, in the assay with PC-3, in the assay on A498, in the assay with MOLT-4, with RXF 393 and in the assay with MCF7 was > 100 µM (inactive) each time. Further, the GI50 with M14, in the assay with DU-145, in the assay with SN12C, with HL-60 and in the assay with MDA-MB-435 was > 100 µM (inactive) each time.
